{"source": "patent US9162992B2", "about": "“Compounds and compositions for treatment of breathing control disorders or diseases” (GALLEON PHARMACEUTICALS, INC., priority 2010, dated 2015)", "key": {"[1]": {"test_system": "morphine-induced respiratory depression", "test": "Opioid-induced respiratory depression in the rat, plethysmography (minute ventilation)", "format": "in vivo", "settings": "morphine sulfate 10 mg/kg IV; infusion 0.10 then 0.30 mg/kg/min, 20 min each; vs vehicle", "procedure": "Rats with pre-cannulated jugular vein (for administering drugs) were acclimated to plethysmography chambers for a minimum of 60 minutes, or until animals were no longer restless. Each animal was dosed with morphine sulfate (10 mg/kg), dissolved in sterile water at a concentration of 10 mg/mL (supplied by Baxter Healthcare Corporation), via injection into the jugular vein catheter over a period of 5-10 seconds.\nCompound (XXXVI) was dissolved in 20% hydroxypropyl β-cyclodextran (20% bcd on graph) at a concentration of 0.45 mg/mL at pH 5. After a period of 5 min, compound (XXXVI), labeled as cmpd (A), was administered via infusion into the jugular vein at a dose of 0.10 mg/kg/min for 20 min and then at a dose of […] for 20 min (e.g., 20 μL/min/0.3 kg rat to yield […]).\nAfter 20 minutes of infusion at this dose, the infusion pumps were turned off, and all animals were given a 20 minute recovery period, followed by a post-study analysis of rat health and behavior. […] Results are illustrated in FIG. 1."}, "healthy subjects": {"test_system": "healthy subjects", "test": "Ventilation, safety and pharmacokinetics in human volunteers, single-rising dose IV infusion", "format": "in vivo", "procedure": "A randomized, double-blind, placebo-controlled nine-period single-rising dose study in three alternating cohorts of healthy subjects was conducted at a single center in conformance with Good Clinical Practice. Compound (XXXVI) was synthesized according to Good Manufacturing Practice. Three (3) Cohorts of ten subjects each were randomized to treatment in a ratio of 4:1 (8 treated, 2 placebo) in a rotating panel design. Subjects in the first cohort participated in dosing periods 1, 4, and 7, with the second cohort participating in dosing periods 2, 5, and 8, and third cohort participating in dosing period 3, 6, and 9. The subjects who received placebo in their first dosing period also received placebo in their second and third dosing periods. Similarly, drug-treated subjects received drug all three dosing periods. In the first Cohort, on the first dose only, 2 subjects were dosed on Day 1 with one subject receiving active drug and one subject receiving placebo. Following a review of available safety and tolerability data (excluding PK), the remainder of Cohort 1 was dosed the following day. Subjects were dosed as detailed in Table 11 with a minimum of 1-week washout between doses.\nSubjects could be screened up to 28 days before the treatment period. On the evening before dosing, subjects were admitted to the clinical site and baseline evaluations were conducted. After an overnight fast, subjects received an intravenous infusion of Compound (XXXVI) or placebo then PD, PK, and safety evaluations were conducted during the next 24 hours. Cohort 1 was enrolled to the lowest dose group and randomized to Compound (XXXVI) or placebo. Safety and tolerability evaluations for each dose included all safety assessments obtained through approximately 24 hours post-dose.\nPharmacodynamic endpoints were assessed by two independent systems consisting of Dräger Infinity patient monitoring system and a portable NOX-T3 respiratory monitoring system. The Dräger system is an inpatient intensive care/postoperative monitoring system used to monitor minute ventilation, respiratory rate (RR), tidal volume (VT) via a pneumotachometer (Capnostat sensor), transcutaneous oxygen hemoglobin saturation (SpO2), and end tidal carbon dioxide (ETCO2) (Capnostat sensor). NOX/T3 is a portable monitoring device used for home diagnostic sleep apnea assessments. In this study, NOX device monitored RR, VT via respiratory inductance plethysmography (RIP), SpO2 (Nonin), actigraphy, nasal air flow, and audio recording of the dosing session. In addition to monitoring pharmacodynamic effects, the Dräger system was also used to monitor subject real-time safety. Standard safety assessments were measured repeatedly throughout the dosing session, and consisted of vital signs (BP, HR, RR, temperature (oral)), Ramsay Sedation Scale (RSS), and pulmonary function testing.\nTest Product, Dose, Mode of Administration, Batch and Lot No(s): Compound (XXXVI) was prepared as a sterile product for injection ready for dilution in normal saline and administration by infusion. Doses were based on the subject's weight on a milligram per kilogram basis and were administered over a 1-, 2-, 3- or 4-hour infusion as described in Table 11. Compound (XXXVI) (Batch No. 04110511) was provided by the Sponsor as a 50 mL fill of 10 mg/mL solution (GAL-021 freebase) in 20 mM citrate for IV Injection; Saline was sourced by the Investigator from Baxter, Lot 11F03E7L.\nThirty (30) subjects received single IV infusions over 1, 2, 3, or 4 hours on the first day of each of 3 periods for a total of 3 dosing days per subject. Per protocol, there was to be a minimum one week washout between doses of Compound (XXXVI) for all subjects. Actual washout periods ranged from 9 to 20 days overall.\nPharmacodynamic (PD) evaluations included tidal volume, respiratory rate, minute ventilation, end-tidal CO2, and transcutaneous hemoglobin oxygen saturation (SpO2). […]"}, "[2]": {"settings": "IV infusion 0.102 to 2.16 mg/kg, 1 to 4 hours"}}}
{"molecule": "CCCNc1nc(NCCC)nc(N(C)OC)n1.O=S(=O)(O)O", "note": "[XXXVI, N-(4,6-Bis-n-propylamino-[1,3,5]triazin-2-yl)-N,O-dimethyl-hydroxylamine hydrogen sulfate]", "values": [{"measurement": "minute ventilation, reversal of opioid-induced respiratory depression", "setting": "[1]", "result": "significantly reversed opioid-induced respiratory depression"}, {"measurement": "increase in tidal volume", "setting": "healthy subjects; 0.016 mg/kg dose (so in the source)", "result": "< 10", "unit": "%"}, {"measurement": "minute ventilation", "setting": "healthy subjects; 0.016 mg/kg/min x 1 hour", "result": "stimulated minute ventilation"}, {"measurement": "safety and tolerability", "setting": "healthy subjects; 0.102-2.16 mg/kg IV, durations 1 to 4 hours", "result": "generally safe and well tolerated"}, {"measurement": "dose proportionality of concentration at 1 hour and AUC", "setting": "healthy subjects; [2]", "result": "dose proportional"}, {"measurement": "pharmacokinetic behaviour", "setting": "healthy subjects; [2]", "result": "well-behaved pharmacokinetically"}, {"measurement": "change in respiratory rate", "setting": "healthy subjects; all doses", "result": "< 10", "unit": "%"}, {"measurement": "increase in minute ventilation", "setting": "healthy subjects; highest infusion rate (0.016 mg/kg/min x 1 hour), first 2 hours after start of infusion", "result": "~27", "unit": "%"}]}
